Each structure is given as a SMILES string.

Series [1] has as its system gastric corpus mucosa cells. The experiment in a line: MTT: Cell Damaging and Protecting Effect Test. The conditions noted are these: final concentration 10^-4 M, 4 hours; smaller value is better; 100 µM. It counts as cell-based, rabbit (male Japanese White).
Another series deals with acid secretion. As to the kind of experiment: VOL, TAO: Acid Secretion Inhibition Test In Vivo. Further details: species or system rat (male Crj:Donryu). To be noted: rat; for TAO: total acid output inhibitory rate / VOL: gastric juice volume inhibitory rate: 100 mg/kg oral, histamine-stimulated, pylorus ligated; for gastric acid secretion inhibition effect (in words): in vivo. How it is done: VOL, TAO: Acid Secretion Inhibition Test In Vivo
Inhibitory effect on acid secretion in vivo is confirmed.
Male Crj:Donryu rats (7-week-old) were fasted overnight but allowed free access to water. In each group, 8 to 10 of these rats were used under urethane anesthesia (1.25 g/kg). The sample compound dissolved or suspended in an aqueous solution of 0.5% sodium carboxymethylcellulose or 0.05% Tween 80 was orally administered (100 mg/10 ml/kg). 30 minutes later, the abdomen of each was incised and the pylorus was ligated. 30 minutes after the ligation, 30 mg/kg of histamine dissolved in physiological saline were subcutaneously administered and, 3 hours thereafter, the rat was sacrificed with carbon dioxide. Immediately thereafter, each stomach was removed and the gastric contents were collected and each volume was determined. The total acid output was determined by titration of the gastric juice with 0.1N NaOH.
With respect to the gastric juice volume (VOL) and the total acid output (TAO), the effects obtained when 100 mg/kg of the sample compound had been administered were expressed as their respective inhibitory rates (%) as follows:
each inhibitory rate (%)=[1-(value in sample group/value in control group)]×100

Another series deals with mice. The experiment in a line: AT: Single Dose Toxicity Pretest. It is filed as in vivo, mouse (male Slc:ICR). How it is done:
AT: Single Dose Toxicity Pretest
Male Slc:ICR mice (5-week-old) were used. Each group has 3 to 5 mice and each mouse was fasted, but allowed free access to water, for 4 to 5 hours from 9 a.m. in the test day. Then, 2,000 mg/10 ml/kg of the sample compound dissolved or suspended in an aqueous solution of 0.5% sodium carboxymethylcellulose were orally administered thereto. To a control, only the vehicle was administered. […] The body weight was measured before and after the fasting as well as at the same time everyday. The dead animals were immediately subjected to autopsy and their organs were observed macroscopically. Also, the living animals were sacrificed with ether or carbon dioxide one week after the administration and then their organs were observed macroscopically.
The toxicity at the single dose of 2,000 mg/kg of the sample compound was expressed as being classified into 5 levels.
5: Mortality rate is 0%; no toxicity is found at all both in behavior and organs.
4: Mortality rate is 0%; while no toxicity is found in organs, slight toxicity is observed in behavior and body weight increase.
3: While there is a dead animal (though not all the animals are dead), no toxicity is found in organs.
2: Regardless of whether there is a dead animal or not, toxicity is found in organs.
1: All the animals are dead.

A short description of series [2]: Tests for Safety (PD, AT, MTT), overall statement. From the text: Based on the foregoing effect tests and safety tests, the anti-ulcer effect, antibacterial activity against HP, and safety of the example compounds of the present invention were studied.

Take `CC(C)CN1CCN(C(=O)c2ccc(OCc3ccc(F)cc3)cc2)CC1.Cl` [Example 2, 1-[4-(4-fluorobenzyloxy)benzoyl]-4-isobutylpiperazine hydrochloride]: the “MTT: cell damaging rate” value in series [1] is -6%.

`CC(C)CN1CCN(C(=O)c2ccc(OCc3ccc(F)cc3)cc2)CC1` [Example 5, 1-[4-(4-fluorobenzyloxy)benzoyl]-4-isobutylpiperazine]: the “MTT: cell damaging rate” value in series [1] was -84%.

As for `CC(C)CN1CCN(C(=O)c2ccc(OCc3ccc(F)cc3)c([N+](=O)[O-])c2)CC1.Cl` [Example 8, 1-[4-(4-fluorobenzyloxy)-3-nitrobenzoyl]-4-isobutylpiperazine hydrochloride], in the series with acid secretion, the “TAO: total acid output inhibitory rate” value is listed as 16% and the “VOL: gastric juice volume inhibitory rate” value came to 8%.

Take `CC(C)Cc1cc(C(=O)N2CCN(CC(C)C)CC2)ccc1OCc1ccc([N+](=O)[O-])cc1.Cl` [Example 13, 1-isobutyl-4-[3-isobutyl-4-(4-nitrobenzyloxy)benzoyl]piperazine hydrochloride]: in the series on acid secretion, the “TAO: total acid output inhibitory rate” value turned out to be 18% and the “VOL: gastric juice volume inhibitory rate” value worked out at 3%.

As for `CC(C)Cc1cc(CC(=O)N2CCN(CC(C)C)CC2)ccc1OCc1ccccc1` [Example 15, 1-(4-benzyloxy-3-isobutylphenylacetyl)-4-isobutylpiperazine], the “AT: toxicity at single dose, level” value with mice (mouse, 2,000 mg/kg oral, one week) amounted to 2.

On to `CC(C)Cc1cc(C(=O)N2CCN(CC(C)C)CC2)ccc1OCc1ccccc1` [Example 16, 1-(4-benzyloxy-3-isobutylbenzoyl)-4-isobutylpiperazine], for which the “AT: toxicity at single dose, level” value in the series with mice (mouse, in vivo) is on record as 2.

As for `CC(C)Cc1cc(C(=O)N2CCN(CC(C)C)CC2)ccc1OCc1ccc(Cl)cc1` [Example 17, 1-[4-(4-chlorobenzyloxy)-3-isobutylbenzoyl]-4-isobutylpiperazine], the “AT: toxicity at single dose, level” value in the series on mice (mouse, in vivo) is listed as 2.

For `CC(C)Cc1cc(C(=O)N2CCN(CC(C)C)CC2)ccc1OCc1ccccc1F` [Example 18, 1-[4-(2-fluorobenzyloxy)-3-isobutylbenzoyl]-4-isobutylpiperazine], the “MTT: cell damaging rate” value in series [1] was -33%.

In the case of `CC(C)Cc1cc(C(=O)N2CCN(CC(C)C)CC2)ccc1OCc1ccccc1F.Cl` [Example 19, 1-[4-(2-fluorobenzyloxy)-3-isobutylbenzoyl]-4-isobutylpiperazine hydrochloride], in the series on acid secretion, the “TAO: total acid output inhibitory rate” value turned out to be 42% and the “VOL: gastric juice volume inhibitory rate” value turned out to be 6%. The “MTT: cell damaging rate” value in series [1] was -55%.

With `CC(C)Cc1cc(CN2CCN(CC(C)C)CC2)ccc1OCc1ccc(F)cc1.Cl.Cl` [Example 20, 1-[4-(4-fluorobenzyloxy)-3-isobutylbenzyl]-4-isobutylpiperazine dihydrochloride], in the series on acid secretion, the “TAO: total acid output inhibitory rate” value is 43% and the “VOL: gastric juice volume inhibitory rate” value is given as 12%.

`CC(C)Cc1cc(C(=O)N2CCN(CC(C)C)CC2)ccc1OCc1ccc(F)cc1` [Example 21, 1-[4-(4-fluorobenzyloxy)-3-isobutylbenzoyl]-4-isobutylpiperazine]: in the series with acid secretion, the “TAO: total acid output inhibitory rate” value was found to be 35%, the “VOL: gastric juice volume inhibitory rate” value stood at 9% and the “gastric acid secretion inhibition effect (in words)” value was “improved”. The “MTT: cell damaging rate” value in series [1] is on record as -65%. In addition, in series [2], the “safety (in words)” value is reported as “great improvement in safety”.

On to `CC(C)Cc1cc(C(=O)N2CCN(CC(C)C)CC2)ccc1OCc1ccc(F)cc1.Cl` [Example 22, 1-[4-(4-fluorobenzyloxy)-3-isobutylbenzoyl]-4-isobutylpiperazine hydrochloride], for which, in the series with acid secretion, the “TAO: total acid output inhibitory rate” value was determined as 22%, the “VOL: gastric juice volume inhibitory rate” value was determined as 10% and the “gastric acid secretion inhibition effect (in words)” value was “improved”. In addition, the “MTT: cell damaging rate” value in series [1] is on record as -4%. Further, the “safety (in words)” value in series [2] is on record as “great improvement in safety”.

On to `CC(C)Cc1cc(C(=O)N2CCN(CC(C)C)CC2)ccc1OCc1ccc(F)c(F)c1.Cl` [Example 23, 1-[4-(3,4-difluorobenzyloxy)-3-isobutylbenzoyl]-4-isobutylpiperazine hydrochloride], for which, in the series on acid secretion, the “TAO: total acid output inhibitory rate” value came out at 9% and the “VOL: gastric juice volume inhibitory rate” value is given as -9%.

Consider `CC(C)Cc1cc(C(=O)N2CCN(CC(C)C)CC2)ccc1OCc1ccc(F)cc1F.Cl` [Example 24, 1-[4-(2,4-difluorobenzyloxy)-3-isobutylbenzoyl]-4-isobutylpiperazine hydrochloride], for which, in the series on acid secretion, the “TAO: total acid output inhibitory rate” value amounted to 33% and the “VOL: gastric juice volume inhibitory rate” value came to 7%. Also, the “MTT: cell damaging rate” value in series [1] is recorded as -126%.

As to `CC(C)Cc1cc(C(=O)N2CCN(CC(C)C)CC2)ccc1OCc1ccc(F)cc1.O=C(O)C(=O)O` [Example 25, 1-[4-(4-fluorobenzyloxy)-3-isobutylbenzoyl]-4-isobutylpiperazine oxalate], in the series with acid secretion, the “TAO: total acid output inhibitory rate” value came out at 47% and the “VOL: gastric juice volume inhibitory rate” value is 19%. In addition, the “MTT: cell damaging rate” value in series [1] is given as -28%.

For `CC(C)Cc1cc(C(=O)N2CCN(CC(C)C)CC2)ccc1OCc1ccc(F)c(F)c1` [Example 26, 1-[4-(3,4-difluorobenzyloxy)-3-isobutylbenzoyl]-4-isobutylpiperazine], in series [1], the “MTT: cell damaging rate” value is 29%.

As for `CC(C)Cc1cc(C(=O)N2CCN(CC(C)C)CC2)ccc1OCc1ccc(F)cc1F` [Example 27, 1-[4-(2,4-difluorobenzyloxy)-3-isobutylbenzoyl]-4-isobutylpiperazine], the “MTT: cell damaging rate” value in series [1] was -119%.

These data come from patent US5756505A, “N-acylpiperazine derivative, antibacterial drug and anti-ulcer drug” (Shiseido Co., Ltd., priority 1995, dated 1998).
